The values below come from ChEMBL document CHEMBL1155844, “Pyrazole inhibitors of coactivator associated arginine methyltransferase 1 (CARM1)” (Bioorg Med Chem Lett, 2008).

In the first experiment the target is T1, Histone-arginine methyltransferase CARM1 (Homo sapiens, UniProt Q86X55).
T1 sequence (Q86X55 whole entry): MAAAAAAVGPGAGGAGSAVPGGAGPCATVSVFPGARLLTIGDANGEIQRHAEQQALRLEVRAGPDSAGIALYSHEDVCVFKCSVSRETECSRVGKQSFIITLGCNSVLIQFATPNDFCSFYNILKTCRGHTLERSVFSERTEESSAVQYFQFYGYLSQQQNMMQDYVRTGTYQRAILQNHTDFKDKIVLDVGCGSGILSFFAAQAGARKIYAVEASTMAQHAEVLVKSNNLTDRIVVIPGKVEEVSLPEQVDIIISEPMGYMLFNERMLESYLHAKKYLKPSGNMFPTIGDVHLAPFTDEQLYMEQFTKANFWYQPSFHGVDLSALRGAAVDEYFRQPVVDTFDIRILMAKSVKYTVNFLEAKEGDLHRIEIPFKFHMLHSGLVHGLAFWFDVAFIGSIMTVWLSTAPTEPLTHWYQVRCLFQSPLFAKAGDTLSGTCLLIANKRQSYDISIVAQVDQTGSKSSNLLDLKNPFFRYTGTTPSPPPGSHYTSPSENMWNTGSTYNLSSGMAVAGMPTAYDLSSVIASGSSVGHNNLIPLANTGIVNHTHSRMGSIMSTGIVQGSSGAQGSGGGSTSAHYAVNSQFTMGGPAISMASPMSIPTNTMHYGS
Briefly: Inhibition of human GST-tagged CARM1 by methylation assay.
For orientation: IC50 means the midpoint of a concentration-inhibition curve. Higher therefore signals weaker potency in that assay. With `C[C@H](N)C(=O)NCc1cccc(-n2nc(C(F)(F)F)cc2NC(=O)OCc2ccccc2)c1`, the IC50 was 0.6 µM.
Compound `CS(=O)(=O)c1ccccc1-c1ccc(NC(=O)c2cc(C(F)(F)F)nn2-c2cccc(CNC(=O)CN)c2)cc1` registered an IC50 of 1.8 µM.
Same read-out and setting: next, `CC(C)(N)C(=O)NCc1cccc(-n2nc(C(F)(F)F)cc2C(=O)Nc2ccc(-c3ccccc3S(C)(=O)=O)cc2F)c1`: over 30 µM.
Same read-out and setting: next, `CS(=O)(=O)c1ccccc1-c1ccc(NC(=O)c2cc(C(F)(F)F)nn2-c2cccc(CNC(=O)CCN)c2)c(F)c1`: 16.9 µM.
Same read-out and setting: as for `CN(C)C(=O)c1cc(C(F)(F)F)nn1-c1cccc(CNC(=O)CN)c1`, the figure is 29.8 µM.
`C[C@H](N)C(=O)NCc1cccc(-n2nc(C(F)(F)F)cc2C(=O)Nc2ccc(-c3ccccc3S(C)(=O)=O)cc2F)c1` had an IC50 of 0.16 µM.
Same read-out and setting: next, `CNCC(=O)NCc1cccc(-n2nc(C(F)(F)F)cc2C(=O)Nc2ccc(-c3ccccc3S(C)(=O)=O)cc2F)c1`: over 30 µM; `NCC(=O)NCc1cccc(-n2nc(C(F)(F)F)cc2C(=O)Nc2ccccc2)c1`: 7.7 µM.
Still for that read-out and setting: as for `C[C@H](N)C(=O)NCc1cccc(-n2nc(C(F)(F)F)cc2C(=O)N(C)Cc2ccccc2)c1`, the figure is 3.4 µM.
Still for that read-out and setting: as for `C[C@H](N)C(=O)NCc1cccc(-n2nc(C(F)(F)F)cc2C(=O)NCc2ccccc2)c1`, the figure is 0.08 µM; as for `CS(=O)(=O)c1ccccc1-c1ccc(NC(=O)c2cc(C(F)(F)F)nn2-c2cccc(CNC(=O)C(N)C(F)(F)F)c2)c(F)c1` (centres undefined), over 30 µM; as for `C[C@H](N)C(=O)NCc1ccc(-n2nc(C(F)(F)F)cc2C(=O)NCc2ccccc2)cc1`, over 50 µM.
Regarding `C[C@H](N)C(=O)NCc1cccc(-n2nc(C(F)(F)F)cc2C(=O)NC2CCCCC2)c1`, the IC50 came out at 4.3 µM.
The same measure, in the same setting: next, `C[C@H](N)C(=O)NCc1cccc(-n2nc(C(F)(F)F)cc2C(=O)Nc2ccccc2)c1`: 1.32 µM; `NCC(=O)NCc1cccc(-n2nc(C(F)(F)F)cc2C(=O)Nc2ccc(-c3ccccc3)cc2)c1`: 1.42 µM; `CNC(=O)c1cc(C(F)(F)F)nn1-c1cccc(CNC(=O)CN)c1`: 10.6 µM.
`C[C@@H](N)C(=O)NCc1cccc(-n2nc(C(F)(F)F)cc2C(=O)Nc2ccc(-c3ccccc3S(C)(=O)=O)cc2F)c1`: inhibition was half-maximal at 20.1 µM (IC50).
As to `C[C@H](N)C(=O)NCc1cccc(-n2nc(C(F)(F)F)cc2C(=O)NCCc2ccccc2)c1`, the midpoint of inhibition, the IC50, lay at 1.1 µM.
The same measure, in the same setting: as for `CS(=O)(=O)c1cccc(NC(=O)c2cc(C(F)(F)F)nn2-c2cccc(CNC(=O)CN)c2)c1`, the figure is 0.23 µM.
The same measure, in the same setting: as for `C[C@H](N)C(=O)NCc1cccc(-n2nc(C(F)(F)F)cc2C(=O)N[C@H](C)c2ccccc2)c1`, the figure is 0.18 µM; as for `C[C@H](N)C(=O)NCc1ccccc1-n1nc(C(F)(F)F)cc1C(=O)NCc1ccccc1`, over 50 µM; as for `C[C@H](N)C(=O)NCc1cccc(-n2nc(C(F)(F)F)cc2C(=O)N[C@@H](C)c2ccccc2)c1`, 7.1 µM.

The target of the next experiment is Protein arginine N-methyltransferase 3 (Homo sapiens, UniProt O60678). Briefly: Inhibition of GST-tagged PRMT3 by methylation assay.
Protein arginine N-methyltransferase 3, sequence (O60678 whole entry): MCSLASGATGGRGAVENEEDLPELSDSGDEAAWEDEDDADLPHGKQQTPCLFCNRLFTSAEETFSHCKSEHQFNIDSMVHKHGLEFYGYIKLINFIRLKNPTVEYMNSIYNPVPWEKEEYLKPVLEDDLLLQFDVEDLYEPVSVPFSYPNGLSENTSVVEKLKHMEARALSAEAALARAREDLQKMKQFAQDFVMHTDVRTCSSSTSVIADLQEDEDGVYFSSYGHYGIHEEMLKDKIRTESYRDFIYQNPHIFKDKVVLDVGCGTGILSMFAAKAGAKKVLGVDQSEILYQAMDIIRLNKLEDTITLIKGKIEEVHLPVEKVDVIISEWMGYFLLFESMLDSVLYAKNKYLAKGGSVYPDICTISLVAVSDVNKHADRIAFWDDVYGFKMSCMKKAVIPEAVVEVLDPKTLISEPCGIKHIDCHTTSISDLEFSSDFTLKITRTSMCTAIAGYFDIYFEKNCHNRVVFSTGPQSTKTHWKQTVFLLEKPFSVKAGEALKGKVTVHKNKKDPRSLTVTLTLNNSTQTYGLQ
Compound `C[C@H](N)C(=O)NCc1cccc(-n2nc(C(F)(F)F)cc2C(=O)NCc2ccccc2)c1` showed an IC50 of over 25 µM.

The target of a further experiment is Protein arginine N-methyltransferase 1 (Homo sapiens, UniProt Q99873). Briefly: Inhibition of GST-tagged PRMT1 by methylation assay.
Protein arginine N-methyltransferase 1, sequence (Q99873 whole entry): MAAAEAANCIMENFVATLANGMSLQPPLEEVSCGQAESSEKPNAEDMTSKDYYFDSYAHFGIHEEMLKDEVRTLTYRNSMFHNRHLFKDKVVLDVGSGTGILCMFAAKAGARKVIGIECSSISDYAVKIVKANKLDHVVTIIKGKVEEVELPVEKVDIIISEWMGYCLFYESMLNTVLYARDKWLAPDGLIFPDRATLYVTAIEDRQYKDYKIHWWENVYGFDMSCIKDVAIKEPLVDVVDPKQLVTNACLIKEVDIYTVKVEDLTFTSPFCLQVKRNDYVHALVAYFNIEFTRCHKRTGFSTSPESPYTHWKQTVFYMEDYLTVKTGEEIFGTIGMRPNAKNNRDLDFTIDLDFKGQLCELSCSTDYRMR
Consider `C[C@H](N)C(=O)NCc1cccc(-n2nc(C(F)(F)F)cc2C(=O)NCc2ccccc2)c1`, for which the IC50 is over 25 µM.
